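1) Cells in 96-well plates. 2) Compound, 48 h, 5 concentrations. 3) Linear interpolation between surrounding doses. 4) Unreached endpoint = highest concentration. GI50 is the concentration that inhibits growth by half. TGI: concentration producing complete growth inhibition.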
Tests used:
Test in all cases: NCI-60 cell line screen, 48 h
U251 CNS = system: U251 CNS
UACC-257 melanoma = system: UACC-257 melanoma
IGROV1 ovarian = system: IGROV1 ovarian
OVCAR-4 ovarian = system: OVCAR-4 ovarian
HT29 colon = system: HT29 colon
NCI-H460 lung = system: NCI-H460 lung
UACC-62 melanoma = system: UACC-62 melanoma
HCT-116 colon = system: HCT-116 colon
CCRF-CEM leukemia = system: CCRF-CEM leukemia
OVCAR-8 ovarian = system: OVCAR-8 ovarian

CCOC(=O)C1=C(C)N(C2OC(COC(C)=O)C(OC(C)=O)C(OC(C)=O)C2OC(C)=O)C(=O)NC1c1ccccc1 (stereo not drawn)
TGI (U251 CNS): > 100 µM
TGI (UACC-257 melanoma): > 100 µM
TGI (IGROV1 ovarian): > 100 µM
TGI (OVCAR-4 ovarian): > 100 µM
TGI (HT29 colon): > 100 µM
TGI (NCI-H460 lung): > 100 µM
TGI (UACC-62 melanoma): > 100 µM
TGI (HCT-116 colon): > 100 µM
TGI (CCRF-CEM leukemia): > 100 µM
TGI (OVCAR-8 ovarian): > 100 µM

CSS(C)(=O)=O
TGI (U251 CNS): > 100 µM
TGI (UACC-257 melanoma): 45.8 µM
TGI (IGROV1 ovarian): 45.2 µM
TGI (OVCAR-4 ovarian): 64.3 µM
TGI (HT29 colon): > 100 µM
TGI (NCI-H460 lung): > 100 µM
TGI (UACC-62 melanoma): 42.3 µM
TGI (HCT-116 colon): > 100 µM
TGI (CCRF-CEM leukemia): > 100 µM
TGI (OVCAR-8 ovarian): 68.8 µM

CCCCCCC(=O)c1ccc2ccccc2c1O
TGI (U251 CNS): > 100 µM
TGI (UACC-257 melanoma): > 100 µM
TGI (IGROV1 ovarian): > 100 µM
TGI (OVCAR-4 ovarian): > 100 µM
TGI (HT29 colon): > 100 µM
TGI (NCI-H460 lung): > 100 µM
TGI (UACC-62 melanoma): > 100 µM
TGI (HCT-116 colon): > 100 µM
TGI (CCRF-CEM leukemia): > 100 µM
TGI (OVCAR-8 ovarian): > 100 µM

COc1ccc(-c2c3c(nc4[nH]c(=S)[nH]c(=S)c24)CCCC3)cc1OC
TGI (U251 CNS): 39.6 µM
TGI (UACC-257 melanoma): > 100 µM
TGI (IGROV1 ovarian): 76.2 µM
TGI (OVCAR-4 ovarian): > 100 µM
TGI (HT29 colon): > 100 µM
TGI (NCI-H460 lung): 42.9 µM
TGI (UACC-62 melanoma): 37.5 µM
TGI (HCT-116 colon): > 100 µM
TGI (CCRF-CEM leukemia): 73.1 µM
TGI (OVCAR-8 ovarian): 74.6 µM

CCCCn1c(C)c2c(c1C)C(=O)N(CCN1CCN(c3ccccc3Cl)CC1)C2=O
TGI (U251 CNS): > 100 µM
TGI (UACC-257 melanoma): 74.3 µM
TGI (IGROV1 ovarian): > 100 µM
TGI (OVCAR-4 ovarian): > 100 µM
TGI (HT29 colon): 31 µM
TGI (NCI-H460 lung): > 100 µM
TGI (UACC-62 melanoma): > 100 µM
TGI (HCT-116 colon): 34.3 µM
TGI (CCRF-CEM leukemia): 75.7 µM
TGI (OVCAR-8 ovarian): > 100 µM

CCOC(=O)/C=C/c1c[nH]c(=O)[nH]c1=O
TGI (U251 CNS): > 75 µM
TGI (UACC-257 melanoma): > 75 µM
TGI (IGROV1 ovarian): > 75 µM
TGI (OVCAR-4 ovarian): > 75 µM
TGI (HT29 colon): > 75 µM
TGI (NCI-H460 lung): > 75 µM
TGI (UACC-62 melanoma): > 75 µM
TGI (HCT-116 colon): > 75 µM
TGI (CCRF-CEM leukemia): > 75 µM
TGI (OVCAR-8 ovarian): > 75 µM

c1ccc(N2N=C3N(c4ccccc4)C2N3c2ccccc2)cc1
TGI (U251 CNS): > 100 µM
TGI (UACC-257 melanoma): 55 µM
TGI (IGROV1 ovarian): > 100 µM
TGI (OVCAR-4 ovarian): > 100 µM
TGI (HT29 colon): > 100 µM
TGI (NCI-H460 lung): > 100 µM
TGI (UACC-62 melanoma): 80.2 µM
TGI (HCT-116 colon): > 100 µM
TGI (CCRF-CEM leukemia): 71.8 µM
TGI (OVCAR-8 ovarian): > 100 µM

C=CCOC1OC(CS(=O)(=O)O)C(OC(C)=O)C(OC(C)=O)C1OC(C)=O (stereo not drawn)
TGI (U251 CNS): > 100 µM
TGI (UACC-257 melanoma): > 100 µM
TGI (IGROV1 ovarian): > 100 µM
TGI (OVCAR-4 ovarian): > 100 µM
TGI (HT29 colon): > 100 µM
TGI (NCI-H460 lung): > 100 µM
TGI (UACC-62 melanoma): > 100 µM
TGI (HCT-116 colon): > 100 µM
TGI (CCRF-CEM leukemia): > 100 µM
TGI (OVCAR-8 ovarian): > 100 µM

CC(=O)OCc1nnn2c1CCC2
TGI (U251 CNS): > 100 µM
TGI (UACC-257 melanoma): > 100 µM
TGI (IGROV1 ovarian): > 100 µM
TGI (OVCAR-4 ovarian): > 100 µM
TGI (HT29 colon): > 100 µM
TGI (NCI-H460 lung): > 100 µM
TGI (UACC-62 melanoma): > 100 µM
TGI (HCT-116 colon): > 100 µM
TGI (CCRF-CEM leukemia): > 100 µM
TGI (OVCAR-8 ovarian): > 100 µM

CCCCCCCCCC[N+](C)(C)C
GI50 (U251 CNS): 1.04 µM
TGI (U251 CNS): 2.29 µM
GI50 (UACC-257 melanoma): 2.3 µM
TGI (UACC-257 melanoma): 7.07 µM
GI50 (IGROV1 ovarian): 1.66 µM
TGI (IGROV1 ovarian): 3.2 µM
GI50 (OVCAR-4 ovarian): 2.2 µM
TGI (OVCAR-4 ovarian): 14.5 µM
GI50 (HT29 colon): 0.505 µM
TGI (HT29 colon): 2.17 µM
GI50 (NCI-H460 lung): 1.73 µM
TGI (NCI-H460 lung): 3.84 µM
GI50 (UACC-62 melanoma): 1.69 µM
TGI (UACC-62 melanoma): 4.59 µM
GI50 (HCT-116 colon): 2.34 µM
TGI (HCT-116 colon): 10.5 µM
GI50 (CCRF-CEM leukemia): 0.739 µM
TGI (CCRF-CEM leukemia): 2.32 µM
GI50 (OVCAR-8 ovarian): 1.83 µM
TGI (OVCAR-8 ovarian): 5.53 µM

COc1c2occc2cc2ccc(=O)oc12
TGI (U251 CNS): > 100 µM
TGI (UACC-257 melanoma): > 100 µM
GI50 (IGROV1 ovarian): > 100 µM
TGI (IGROV1 ovarian): > 100 µM
TGI (OVCAR-4 ovarian): > 100 µM
GI50 (HT29 colon): > 100 µM
TGI (HT29 colon): > 100 µM
TGI (NCI-H460 lung): > 100 µM
TGI (UACC-62 melanoma): > 100 µM
TGI (HCT-116 colon): > 100 µM
TGI (CCRF-CEM leukemia): > 100 µM
GI50 (OVCAR-8 ovarian): > 100 µM
TGI (OVCAR-8 ovarian): > 100 µM

COc1ccc(OCC(C)(C)O)cc1
TGI (U251 CNS): > 100 µM
TGI (UACC-257 melanoma): > 100 µM
TGI (IGROV1 ovarian): > 100 µM
TGI (OVCAR-4 ovarian): > 100 µM
TGI (HT29 colon): > 100 µM
TGI (NCI-H460 lung): > 100 µM
TGI (UACC-62 melanoma): > 100 µM
TGI (HCT-116 colon): > 100 µM
TGI (CCRF-CEM leukemia): > 100 µM
TGI (OVCAR-8 ovarian): > 100 µM

Source: PubChem BioAssay (NCI)
